Test results reported in ChEMBL document CHEMBL1146582, “Phenolic constituents from Dalbergia cochinchinensis” (J Nat Prod, 2003).

Columns and labels:
[1] = Inhibition of testerone 5-alpha-reductase at 25 ug/mL
[2] = Inhibition of testerone 5-alpha-reductase at 100 ug/mL
[3] = Inhibition of testerone 5-alpha-reductase at 50 ug/mL

Row | inhibition [1] [%] | inhibition [2] [%] | inhibition [3] [%] | SMILES
1 | 19.5 | 22.8 | 20.7 | COc1cc(O)ccc1C(=O)/C=C/c1ccccc1
2 | 8.2 | 51.8 | 18.9 | C=CC(c1ccccc1)c1cc(O)c(OC)cc1OC (stereo not drawn)
3 | 42.8 | 65.6 | 52 | COC1=CC(=O)c2cc(-c3ccccc3)c3cc(O)c(OC)cc3c2C1=O
4 | 11.5 | 18.1 | 15.9 | COc1cc2oc(Cc3cc(OC)c(OC)cc3OC/C=C/c3ccccc3)c(-c3ccccc3)c2cc1O
5 | 31.7 | 87.1 | 64.7 | CC1(C)[C@@H](O)CC[C@]2(C)[C@H]3C(=O)C=C4[C@@H]5C[C@@](C)(C(=O)O)CC[C@]5(C)CC[C@@]4(C)[C@]3(C)CC[C@@H]12
6 | 0.6 | 17 | 3.8 | COC1=CC(=O)C(Cc2oc3cc(OC)c(O)cc3c2-c2ccccc2)=CC1(C/C=C/c1ccccc1)OC (stereo not drawn)
